Measured values from patent USRE38723E1, “Haloalkyl derivatives of reporter molecules used to analyze metabolic activity in cells” (Molecular Probes, Inc., priority 1991, dated 2005).

Assays:
[1] = system: NIH/3T3 cells and CRE BAG 2 cells; conditions: 500 μM staining medium for 24 hours
Source text: (§1) The same cell lines as used in Example 11 are used for these experiments.

NIH 3T3 cells = test: Cytotoxicity (loss of fluorescence) assay using CMFDG (Example 15); type: cell-based; conditions: 10 μM for 30 minutes at 37° C.
Method: 1) Reagents 5-Chloromethylfluorescein di-β-D-galactopyranoside (CMFDG) (Example 1) and 7-(β-D-galactopyranosyloxy)-4-chloromethylcoumarin (Cl-MUG) (Example 3) are separately dissolved at 10 mM anhydrous DMSO and stored frozen at −20° C. until needed. Saponin is dissolved in PBS at a concentration of 0.04%.
NIH/3T3 cells (lacZ negative) and CRE BAG 2 cells (3T3 cells transformed with a retrovirus containing latZ gene) are employed for cellular assays. Both cell lines can be obtained from American Type Culture Collection Co., Rockville, Md. The cells are grown in a humidified atmosphere of 5% CO2 in Dulbecco's modified Eagle's medium supplemented with 10% calf serum, 50 μg/mL gentamicin, 300 μg/mL L-glutamine and 10 mM HEPES pH7.4.
The experiment is most conveniently performed in a CytoFluor™ 2300 fluorescence plate reader (Millipore) but can be performed qualitatively on a microscope slide or quantitatively in a flow cytometery, or in any system that permits washing of the cells following addition of the cytotoxic agent. […] Fluorescence of each well is determined using a 485 nm excitation filter, a 530 nm emission filter and sensitivity setting 1. […] Loss of fluorescence from the sample is correlated with the loss of integrity of the membrane and thus the cytotoxicity of the reagent.

[2] = system: lacZ positive CRE BAG 2 cells; test: Cellular retention after loading by hypoosmotic shock (Example 12); type: cell-based
Method: 5-Chloromethylfluorescein di-β-D-galactoside (CMFDG) (Example 1) is dissolved in DMSO to get 20 mM stock solution. A 40 mM stock solution offluorescein di-β-D-galaetoside (FDG) (Molecular Probes) is also made in DMSO as a control. The stock solutions are kept sealed in brown reagent bottles and stored at −20° C.
• (A) FCS-PBS Solution: Phosphate buffered saline (GIBCO), 4% fetal calf serum, 10 mM HEPES, pH 7.2 • (B) Staining Solution: CMFDG: 200 μL of stock solution is diluted with distilled water to 4 mL to get a 1 mM staining solution. FDG: 400 μL of stock solution is diluted to 4 mL with distilled water to get a 4 mM staining solution. 4. Staining and Examination of Cells:
Cells grown on coverslips are transferred to a Petri dish containing 3 mL of FCS-PBS solution and then incubated at 37° C. for 10 minutes. 3 mL of prewarmed (37° C.) 1 mM CMFDG staining solution is added to give a final dye concentration of 0.5 mM The solutions are mixed rapidly. The cells are incubated at 37° C. for exactly one minute. To stop the loading, the cells are transferred to a 1.8 mL of ice-cold FCS-PBS solution. FDG is loaded into cells by using the same procedure except that the final dye concentrations is 2 mM. Cells are then incubated under normal culture conditions to examine the dye retention. Cells are examined without washing at the desired time for their fluorescence under a Zeiss microscope equipped with a FITC filter set (EX 485 nm/EM 530 nm).

[3] = system: lacZ-positive yeast strains EG123 and HR125-5d; test: Measurement of lacZ marker gene expression in transformed yeast (Example 13); type: cell-based, Saccharomyces cerevisiae
Method: Because the CMFDG substrate generates a product that is so well retained by cells (Examples 11 and 12), it can be used for quantitative measurements of lacZ expression. • 1. A series of lacZ gene containing plasmids, each with a modified yeast promoter are used. When transferred into the appropriate strains of Saccharomyces cerevisiae, each plasmid confers a different level of lacZ gene expression. Yeast strains EG123 and HR125-5d, transformed with these plasmids, are grown in special minimal medium for plasmid maintenance and, after reaching the appropriate level of growth, are assayed for lacZ gene expression as measured by β-galactosidase activity. • 2. The β-galactosidase activity of one aliquot of these transformed yeast cells is measured using o-nitrophenyl-β-D-galactopyranoside (ONPG). • 3. Another aliquot of yeast cells is loaded with the fluorogenic substrate CMFDG as indicated in Example 12. Following washing to remove any dye that has leaked from the cells, the fluorescence intensity of the remaining cells as measured in a CytoFluor 2300 fluorescence plate reader (Millipore) can be measured over time. […] The amount of increase over time can be calculated from the slope of the plotted increase using linear regression. Each yeast strain accumulates fluorescent product at a characteristic rate, as reflected in the differences in the slopes of the various lines. • 4. […]

[4] = system: NIH/3T3 cells and CRE BAG 2 cells; test: Cytotoxicity of CMFDG staining medium (Example 12)
Source text: as §1

For `O=C1OC2(c3ccc(O[C@@H]4O[C@H](CO)[C@H](O)[C@H](O)[C@H]4O)cc3Oc3cc(O[C@@H]4O[C@H](CO)[C@H](O)[C@H](O)[C@H]4O)ccc32)c2ccc(CCl)cc21` [CMFDG, 5-chloromethylfluorescein di-β-D-galactopyranoside], the cell morphology [1] was “morphologically normal”, the “population doubling time versus control” value [1] was “same population doubling time” and the “fluorescence of loaded cells” value (NIH 3T3 cells) was “brightly fluorescent”. The “staining of cells after 10 minutes incubation” value ([2]; 0.5 mM CMFDG versus 2 mM FDG, hypoosmotic shock loading) was “very well stained and much brighter”, the “stained cells apparently as bright as after 10 minutes incubation” value ([2]; after incubation for 4 hours, 0.5 mM) was “more than 70%” and the “fluorescence plotted over time” value ([3]; each lacZ-positive yeast strain, CytoFluor 2300 plate reader) was “linear increase in fluorescence”. For the same compound, the “fluorescence intensity over time versus level of lacZ expression (ONPG assay)” value ([3]; transformed yeast cells) was “correlates well” and the cytotoxicity [4] was “no cytotoxicity”.
